The conditions of series [1]: for mass density: 101.33 kPa; for Triple point temperature: DTA.
The nature of series [2]: Molar enthalpy of transition or fusion. As to conditions: DSC.
Series [3] is described as follows: molar enthalpy of vaporization or sublimation. As to conditions: 298.15 K; Liquid; Static calorimetry.

Numbers after ± are expanded uncertainties.

The mass density is the mass of a sample divided by its volume.

Consider `CN(C)C(N)=[N+](C)C.O=[N+]([O-])[O-]` [tetramethylguanidinium nitrate], for which the mass density worked out at 1295 ± 7 kg/m3 in series [1] (167 K, Crystal 2, X-ray diffraction) and 1284 ± 7 kg/m3 in series [1] (251 K, Crystal 1, X-ray diffraction). Besides, the results for the Triple point temperature in series [1] (Crystal 1) and in series [1] (Crystal 2) were 365.9 ± 0.5 K and 221.4 ± 1.7 K, respectively. Moreover, the “Molar enthalpy of transition or fusion” value in series [2] (Crystal 1) was found to be 4.74 ± 0.122 kcal/mol; in series [2] (Crystal 2), 0.159 ± 0.0335 kcal/mol.

As for `CN(C)C(=N)N(C)C` [1,1,3,3-tetramethylguanidine], the mass density stood at 921.517 ± 0.12 kg/m3 in series [1] (288.15 K, Liquid, Vibrating tube method); 917.012 ± 0.12 kg/m3 in series [1] (293.15 K, Liquid, Vibrating tube method); 912.5 ± 0.12 kg/m3 in series [1] (298.14 K, Liquid, Vibrating tube method); 907.982 ± 0.12 kg/m3 in series [1] (303.15 K, Liquid, Vibrating tube method); 903.458 ± 0.12 kg/m3 in series [1] (308.15 K, Liquid, Vibrating tube method). Further, the molar enthalpy in series [3] stood at 11.9 ± 0.359 kcal/mol.

(Values after the NIST ThermoML archive (doi:10.1016/j.jct.2014.01.007).)
